Source: patent US20090131468A1, “Bis-(Sulfonylamino) Derivatives in Therapy 065” (AstraZeneca AB, priority 2007, published 2009)

Each compound was assayed against T1, human mPGES-1 (Homo sapiens, UniProt O14684) (assay: Microsomal prostaglandin E synthase biochemical assay). Conditions: microsome preparation containing human mPGES-1; PGH2 10.8 μM, GSH 2.5 mM, pH 6.8; PGE2 quantified by HTRF; average of at least n=2.
T1 sequence (O14684 1-152): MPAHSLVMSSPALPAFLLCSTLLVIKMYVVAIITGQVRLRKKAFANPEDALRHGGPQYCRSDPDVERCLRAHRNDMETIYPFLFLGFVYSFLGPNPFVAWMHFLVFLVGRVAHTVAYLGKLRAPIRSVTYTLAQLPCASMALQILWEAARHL
Method: Compounds were tested as inhibitors of microsomal prostaglandin E synthase activity in microsomal prostaglandin E synthase assays and whole cell assays. These assays measure prostaglandin E2 (PGE2) synthesis which is taken as a measure of prostaglandin E synthase activity. Microsomal prostaglandin E synthase biochemical assays used microsomal prostaglandin E synthase-1 in microsomal preparations. The source of the microsomes can be for example interleukin-1β-stimulated human A549 cells (which express human mPGES-1) or Sf9 cells transfected with plasmids encoding human mPGES-1 cDNA.
A solution of test compound was added to a diluted microsome preparation containing human mPGES-1 and pre-incubated for 15 minutes in potassium phosphate buffer pH 6.8 with cofactor glutathione (GSH). Corresponding solutions without test compound were used as positive controls, and corresponding solutions without test compound and without microsomes were used as negative controls. The enzymatic reaction was then started by addition of the substrate PGH2 in an organic solution (dry acetonitrile).
The reaction was stopped after one minute by adding an acidic solution (pH 1.9) of ferric chloride and citrate (final concentrations 7 mM and 47 mM respectively), by which the PGH2 was sequestered (the PGH2 is reduced to mainly 12-hydroxy heptadecatrineoic acid (12-HHT) which is not detected by the subsequent PGE2 detection step). The resulting solution was then pH neutralized by addition of potassium phosphate buffer, prior to diluting an aliquot of the resulting solution in a weak potassium phosphate buffer (50 mM, pH 6.8) containing 0.2% BSA (w/v). […] The PGE2 formed was quantified by use of a commercial HTRF based kit (catalogue #62PG2PEC or #62P2APEC from Cisbio International). 100% activity was defined as the PGE2 production in positive controls subtracted by the PGE2 production in the negative controls. IC50 values were then determined using standard procedures.

SMILES	IC50 [µM]
COc1cc(C(=O)NS(=O)(=O)c2ccccc2S(N)(=O)=O)cnc1C#CC1CCCC1 [Example 137, 6-(Cyclopentylethynyl)-5-methoxy-N-(2-sulfamoylphenylsulfonyl)nicotinamide]	0.02
NS(=O)(=O)c1ccccc1S(=O)(=O)NC(=O)c1ccc(-c2cc3ccccc3o2)nc1 [Example 117, 6-(Benzofuran-2-yl)-N-(2-sulfamoylphenylsulfonyl)nicotinamide]	0.18
NS(=O)(=O)c1ccccc1S(=O)(=O)NC(=O)c1ccc(-c2nc3ccccc3s2)cc1 [Example 5, 4-Benzothiazol-2-yl-N-(2-sulfamoylphenyl)sulfonyl-benzamide]	0.023
COc1c(C#CC(C)(C)C)ccc(C(=O)NS(=O)(=O)c2ccccc2S(N)(=O)=O)c1F [Example 90, 4-(3,3-Dimethylbut-1-ynyl)-2-fluoro-3-methoxy-N-(2-sulfamoylphenylsulfonyl)-benzamide]	0.26
NS(=O)(=O)c1ccccc1S(=O)(=O)NC(=O)c1ccc(C#Cc2ccccc2)cc1 [Example 72, 4-(Phenylethynyl)-N-(2-sulfamoylphenylsulfonyl)benzamide]	0.01
CC(C)(C)C#Cc1ccc(C(=O)NS(=O)(=O)c2ccccc2S(N)(=O)=O)cc1F [Example 73, 4-(3,3-Dimethylbut-1-ynyl)-3-fluoro-N-(2-sulfamoylphenylsulfonyl)benzamide]	0.06
NS(=O)(=O)c1ccccc1S(=O)(=O)NC(=O)c1ccc(Br)c(F)c1 [Example 13, 4-Bromo-3-fluoro-N-(2-sulfamoylphenyl)sulfonyl-benzamide]	0.29
C[C@]1(C(=O)NS(=O)(=O)c2ccccc2S(N)(=O)=O)CC[C@@H](c2cc3ccccc3o2)CC1 [Example 109, (1s,4s)-4-(Benzofuran-2-yl)-1-methyl-N-(2-sulfamoylphenylsulfonyl) cyclohexane-carboxamide]	0.27
COc1cc(C(=O)NS(=O)(=O)c2ccccc2S(N)(=O)=O)cc(OC)c1-c1cc2ccccc2o1 [Example 47, 4-(Benzofuran-2-yl)-3,5-dimethoxy-N-(2-sulfamoylphenylsulfonyl)benzamide]	0.14
NS(=O)(=O)c1ccccc1S(=O)(=O)NC(=O)c1ccc(C#Cc2cccnc2)cc1 [Example 70, 4-(Pyridin-3-ylethynyl)-N-(2-sulfamoylphenylsulfonyl)benzamide]	0.32
CC(C)(O)C#Cc1cc(C(=O)NS(=O)(=O)c2ccccc2S(N)(=O)=O)ccc1-c1cc2ccccc2o1 [Example 154, 4-(Benzofuran-2-yl)-3-(3-hydroxy-3-methylbut-1-ynyl)-N-(2-sulfamoylphenyl-sulfonyl)benzamide]	0.0099
NS(=O)(=O)c1ccccc1S(=O)(=O)NC(=O)c1ccc(-c2ccccc2)cc1 [Example 31, 4-Phenyl-N-(2-sulfamoylphenyl)sulfonyl-benzamide]	0.32
CC(C)(O)c1cc2cc(C(=O)NS(=O)(=O)c3ccccc3S(N)(=O)=O)ccc2o1 [Example 124, 2-(2-Hydroxypropan-2-yl)-N-(2-sulfamoylphenylsulfonyl)benzofuran-5-carboxamide]	21
NS(=O)(=O)c1ccccc1S(=O)(=O)NC(=O)c1ccc(C#Cc2ccccc2)nc1 [Example 55, 6-(Phenylethynyl)-N-(2-sulfamoylphenylsulfonyl)nicotinamide]	0.12
COc1cc(C(=O)NS(=O)(=O)c2ccccc2S(N)(=O)=O)cnc1C#CC1CCCCC1 [Example 138, 6-(Cyclohexylethynyl)-5-methoxy-N-(2-sulfamoylphenylsulfonyl)nicotinamide]	0.012
CC(OC(C)(C)C)c1cc2cc(C(=O)NS(=O)(=O)c3ccccc3S(N)(=O)=O)ccc2o1 (stereo not shown) [Example 121, 2-(1-tert-Butoxyethyl)-N-(2-sulfamoylphenylsulfonyl)benzofuran-5-carboxamide]	2.1
Cn1c(C(=O)NS(=O)(=O)c2ccccc2S(N)(=O)=O)cc2ccccc21 [Example 33, 1-Methyl-N-(2-sulfamoylphenyl)sulfonyl-indole-2-carboxamide]	4.6
Cc1cc(C(=O)NS(=O)(=O)c2ccccc2S(N)(=O)=O)ccc1-c1cc2ccccc2o1 [Example 45, 4-(Benzofuran-2-yl)-3-methyl-N-(2-sulfamoylphenylsulfonyl)benzamide]	0.0055
NS(=O)(=O)c1ccccc1S(=O)(=O)NC(=O)CC12CC3CC(CC(C3)C1)C2 [Example 16, 2-(1-Adamantyl)-N-(2-sulfamoylphenyl)sulfonyl-acetamide]	5.2

SMILES	IC50 [µM]
Cc1cc(-c2cc3ccccc3o2)cc(C)c1C(=O)NS(=O)(=O)c1ccccc1S(N)(=O)=O [Example 52, 4-(Benzofuran-2-yl)-2,6-dimethyl-N-(2-sulfamoylphenylsulfonyl)benzamide]	0.45
CC(C)Oc1cc(C(=O)NS(=O)(=O)c2ccccc2S(N)(=O)=O)ccc1C#CC(C)(C)C [Example 128, 4-(3,3-Dimethylbut-1-ynyl)-3-isopropoxy-N-(2-sulfamoylphenylsulfonyl)benzamide]	0.045
NS(=O)(=O)c1ccccc1S(=O)(=O)NC(=O)c1sc2cc(Cl)ccc2c1Cl [Example 39, 3,6-Dichloro-N-(2-sulfamoylphenyl)sulfonyl-benzothiophene-2-carboxamide]	0.082
NS(=O)(=O)c1ccccc1S(=O)(=O)NC(=O)c1ccc(-c2cc3ccccc3o2)c(CO)c1 [Example 103, 4-(Benzofuran-2-yl)-3-(hydroxymethyl)-N-(2-sulfamoylphenylsulfonyl)benzamide]	0.015
CC(C)(C)C#Cc1ccc(C(=O)NS(=O)(=O)c2ccccc2S(N)(=O)=O)nc1 [Example 89, 5-(3,3-Dimethylbut-1-ynyl)-N-(2-sulfamoylphenylsulfonyl)picolinamide]	1.2
NS(=O)(=O)c1ccccc1S(=O)(=O)NC(=O)c1cnc(C#CC2CCCC2)c(Cl)c1 [Example 148, 5-Chloro-6-(cyclopentylethynyl)-N-(2-sulfamoylphenylsulfonyl)nicotinamide]	0.022
NS(=O)(=O)c1ccccc1S(=O)(=O)NC(=O)c1ccc(Br)cc1 [Example 10, 4-Bromo-N-(2-sulfamoylphenyl)sulfonyl-benzamide]	0.44
CC(C)(C)c1ccc(C(=O)NS(=O)(=O)c2ccccc2S(N)(=O)=O)cc1 [Example 32, N-(2-Sulfamoylphenyl)sulfonyl-4-tert-butyl-benzamide]	1.5
Cc1nc(-c2cccc(C(F)(F)F)c2)sc1C(=O)NS(=O)(=O)c1ccccc1S(N)(=O)=O [Example 22, 4-Methyl-N-(2-sulfamoylphenyl)sulfonyl-2-[3-(trifluoromethyl)phenyl]1,3-thiazole-5-carboxamide]	0.03
CCC(O)(C#Cc1ccc(C(=O)NS(=O)(=O)c2ccccc2S(N)(=O)=O)cc1)CC [Example 56, 4-(3-Ethyl-3-hydroxypent-1-ynyl)-N-(2-sulfamoylphenylsulfonyl)benzamide]	2.3
CC(C)(C)C#Cc1ccc(C(=O)NS(=O)(=O)c2ccccc2S(N)(=O)=O)c(C(F)(F)F)c1 [Example 151, 4-(3,3-Dimethylbut-1-ynyl)-N-(2-sulfamoylphenylsulfonyl)-2-(trifluoromethyl)-benzamide]	0.38
NS(=O)(=O)c1ccccc1S(=O)(=O)NC(=O)c1cnc2ccccc2c1 [Example 162, Benzene-1,2-disulfonic acid 1-amide 2[(quinoline-3-carbonyl)-amide]]	11
NS(=O)(=O)c1ccccc1S(=O)(=O)NC(=O)c1cccc(OC(F)F)c1 [Example 19, 3-(Difluoromethoxy)-N-(2-sulfamoylphenyl)sulfonyl-benzamide]	8.7
COC(C)(C)C#Cc1ccc(C(=O)NS(=O)(=O)c2ccccc2S(N)(=O)=O)cc1O [Example 115, 3-Hydroxy-4-(3-methoxy-3-methylbut-1-ynyl)-N-(2-sulfamoylphenylsulfonyl)-benzamide]	4.3
NS(=O)(=O)c1ccccc1S(=O)(=O)NC(=O)c1c(F)cc(-c2cc3ccccc3o2)cc1F [Example 152, 4-(Benzofuran-2-yl)-2,6-difluoro-N-(2-sulfamoylphenylsulfonyl)benzamide]	0.57
Cc1nc(-c2ccccc2)sc1C(=O)NS(=O)(=O)c1ccccc1S(N)(=O)=O [Example 29, 4-Methyl-2-phenyl-N-(2-sulfamoylphenyl)sulfonyl-1,3-thiazole-5-carboxamide]	0.29
CC(C)(C)c1cc2cc(C(=O)NS(=O)(=O)c3ccccc3S(N)(=O)=O)ccc2o1 [Example 76, 2-tert-Butyl-N-(2-sulfamoylphenylsulfonyl)benzofuran-5-carboxamide]	0.11
COc1ccc(-c2cc3cc(C(=O)NS(=O)(=O)c4ccccc4S(N)(=O)=O)ccc3o2)cc1 [Example 75, 2-(4-Methoxyphenyl)-N-(2-sulfamoylphenylsulfonyl)benzofuran-5-carboxamide]	0.029
